Read-outs that look alike come from different tables or passages of the source.

The target of data set [1] is T1, ERα LBD (Homo sapiens, UniProt P03372).
T1 construct: using 7 nM GST-tagged ERα LBD (Invitrogen); purchased Invitrogen
T1 sequence (P03372 311-547 limits assumed): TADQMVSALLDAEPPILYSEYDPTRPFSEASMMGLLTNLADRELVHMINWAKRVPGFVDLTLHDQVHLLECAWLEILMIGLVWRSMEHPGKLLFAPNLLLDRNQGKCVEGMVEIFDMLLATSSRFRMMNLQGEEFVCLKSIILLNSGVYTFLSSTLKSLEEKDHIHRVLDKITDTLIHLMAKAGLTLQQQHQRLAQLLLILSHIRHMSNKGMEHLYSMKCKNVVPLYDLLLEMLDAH
Put plainly: MARCoNI ERα-coregulator interaction peptide microarray. Format: biochemical. Conditions: 10 μM compound, 7 nM GST-tagged ERα LBD, vs apo. The method, then:
The modulation of ERα-coregulator interaction by compound was analyzed using MARCoNI (Micro Array Assay for Real-time Coregulator Nuclear receptor Interaction) as described previously using 7 nM GST-tagged ERα LBD (Invitrogen).
Each condition is measured using 3 technical replicates (arrays). After incubation, unbound receptor is removed by washing, and a tiff image of each array is acquired using a CCD camera and receptor binding to each peptide on the array is quantified using dedicated software. For each condition, the three technical replicates are used to calculate mean and S.E.M. ERα binding as well as compound-induced log-fold modulation vs. control for each individual motif. Significance of the modulation is assessed using Student's t-Test.

On the set-up of data set [2]: method as in PMID 27529700. Conditions: mice; cited from earlier work.
A short description of data set [3]: Drug concentrations in final plasma and tumor tissue of MCF-7 xenograft mice. Conditions: for concentration at 3 weeks: female, Nu/Nu, mouse, end of study. Format: in vivo. As for the experimental part: The plasma samples of 100 μL each were processed for analysis by a TSQ UPLC-MS/MS system. Aliquots of 10 μL of 0.5 ng/μl E-Tamoxifen-2C^13, N^15, 200 μL methanol, and 400 μl chloroform were added to the plasma in a 1.5 mL centrifuge tube in sequence. The sample was vortexed and stored at −20°C for 4 hours, followed by sonication in a Branson B3510MT Ultrasonic Cleaners for 30 min and centrifuged at 12000 RPM on a Heraeus Fresco 21 Refrigerated Micro Centrifuge from Thermo Fisher Scientific for 10 min. The supernatant was dried with a nitrogen gas flow and suspended in 100 μL methanol. Aliquots of 10 μL of the above processed samples were injected into a TSQ Vantage mass spectrometer connected with a heated electrospray ionization probe and a Dionex Ultimat 3000 UHPLC with a Hypersil gold column (50×2.1 mm). The probe setting and front mass spectrometer setting were controlled as follows: spray voltage 3200 voltage, auxiliary gas 10psi, vaporizer temperature 365°C, capillary temperature 300°C, sheath gas 30psi, S-lens RF amplitude 51 voltage. The flow gradient was started with initial 30% mobile phase A of water with 0.05% formic acid to 1 min, to 100% mobile phase B of acetonitrile with 0.05% formic acid at 8 min, and return to 30% mobile phase A at 13 min.

The target of data set [4] is T2, ERα (Homo sapiens, UniProt P03372).
T2 construct: MCF-7 cells were plated at a density of 200,000 cells/60mm dish; endogenous in cells; host or cells: MCF-7
T2 sequence (P03372 1-595): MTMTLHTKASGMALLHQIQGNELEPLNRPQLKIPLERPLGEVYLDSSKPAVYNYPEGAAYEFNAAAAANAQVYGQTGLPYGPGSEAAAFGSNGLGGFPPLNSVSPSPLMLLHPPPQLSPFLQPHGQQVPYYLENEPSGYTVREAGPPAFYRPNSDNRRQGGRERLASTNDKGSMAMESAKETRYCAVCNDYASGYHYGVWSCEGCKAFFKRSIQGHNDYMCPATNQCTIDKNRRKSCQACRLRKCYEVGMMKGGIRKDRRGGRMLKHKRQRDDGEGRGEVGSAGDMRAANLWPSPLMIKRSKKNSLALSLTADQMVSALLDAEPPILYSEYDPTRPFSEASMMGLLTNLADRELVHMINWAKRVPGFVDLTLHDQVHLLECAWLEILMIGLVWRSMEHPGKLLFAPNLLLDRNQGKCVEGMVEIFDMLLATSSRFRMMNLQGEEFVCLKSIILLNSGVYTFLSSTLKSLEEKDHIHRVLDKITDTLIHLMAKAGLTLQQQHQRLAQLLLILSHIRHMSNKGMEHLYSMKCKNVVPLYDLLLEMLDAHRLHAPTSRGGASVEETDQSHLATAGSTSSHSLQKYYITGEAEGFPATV
As to the kind of experiment: ER downregulation in MCF-7 cells (Western blot). Type of data set: cell-based. Conditions: treated for 4 hours, read-out: ERα IC50 (ER downregulation in MCF-7 cells). On the technique in general: Immunoblotting shows a protein as a band on a membrane.
Method: MCF-7 cells were plated at a density of 200,000 cells/60mm dish. Media containing the same drug concentrations as the growth curve assay were added on the day following plating (day 0) and allowed to incubate for 5 days for Western blot. Media with the tested compound was changed every other day. Cells were lysed. Lysates were placed on a rotisserie at 4°C for 30 min and then spun at 4°C at 12,000 rcf for 10 min. Supernatants were assayed for protein content, snap-frozen, and stored at −80°C if not run immediately. 50 μg of protein was subjected to Western blot protocol. Membranes were blocked and then incubated with 1:200 dilution of ERα antibody at 4°C overnight followed by 1:10,000 dilution of secondary antibody for 1 hr at room temperature. They were then imaged on a LICOR infrared scanner.

The nature of data set [5]: Tolerability in tumor bearing animals. Conditions: all tumor bearing animals, different oral doses. As for the experimental part: Four to six weeks old female ovariectomized Nu/Nu mice were purchased from Charles River Laboratories (Wilmington, MA). MCF-7 cells were cultured and harvested in the exponential growth phase using a PBS/EDTA solution. The animals were injected bilaterally in the mammary fat pad (MFP) with 5×10^6 viable cells suspended in 50 μL sterile PBS mixed with 100 μL Matrigel (reduced factor; BD Biosciences, Bed- ford, MA). 17b-Estradiol pellets (0.72 mg, 60 day release; Innovative Research of America, Sarasota, FL) were implanted subcutaneously in the lateral area of the neck using a precision trochar (10 gages) at the time of cell injection. Tumors were allowed to form and at day 15 post cell injection […]. […] Tumor sizes were monitored and recorded every other day for three weeks of treatment duration.
In a patient-derived xenograft (PDX) mouse model in which the primary tumor donated by a postmenopausal patient was engrafted in NOD scid gamma (NSG™) mice (TM00386 PDX model, Jackson Lab). […] Tumor sizes were monitored and recorded every other day for three weeks of treatment duration.

On to `C[C@]12CC[C@@H]3c4ccc(B(O)O)cc4C[C@@H](CCCCCCCCC[S+]([O-])CCCC(F)(F)C(F)(F)F)[C@H]3[C@@H]1CC[C@@H]2O` (stereo partly shown) [ZB716], for which the “modulation of ERα interaction with coactivator motifs (NCOA family)” value in data set [1] is “strongly reduced”. Moreover, in data set [2], the “plasma peak concentration after single-dose oral gavage relative to same-dose fulvestrant s.c.” value is given as “over 10 times”. Further, the “drug accumulation in tumor tissue relative to fulvestrant treated mice” value in data set [3] (ZB716 10 mg/kg dose group) came out at 4 fold. The “final plasma concentration relative to fulvestrant treatment group” value was “over 6 fold” in data set [3] (ZB716 10 mg/kg dose group) and above 20 fold in data set [3] (ZB716 30 mg/kg dose group). Besides, the “drug concentration in tumor tissue relative to fulvestrant treated mice” value in data set [3] (ZB716 30 mg/kg dose group) was 10 fold. Also, the concentration at 3 weeks is 182 ng/mL in data set [3] (plasma, treatment ZB716 10 mg/kg daily PO, read-out: Average concentration in final plasma); 692 ng/mL in data set [3] (plasma, treatment ZB716 30 mg/kg daily PO, read-out: Average concentration in final plasma); 506 ng/mL in data set [3] (tumor tissue, treatment ZB716 10 mg/kg daily PO, read-out: Average concentration in tumor tissue); 1540 ng/mL in data set [3] (tumor tissue, treatment ZB716 30 mg/kg daily PO, read-out: Average concentration in tumor tissue). Also, the DC50 in data set [4] was 800 pM. For the same molecule, the animal body weights entry in data set [5] is given as “no significant loss or increase of animal body weights”. Besides, in data set [5], the “toxicities in the entire course of treatment” value is listed as “no apparent toxicities were observed”.

The record behind these values is PMC5805526, “ZB716, a steroidal selective estrogen receptor degrader (SERD), is orally efficacious in blocking tumor growth in mouse xenograft models” (Oncotarget, 2018).
